What was measured:
[1] = target: RAC-beta serine/threonine-protein kinase (Homo sapiens, UniProt P31751); experiment: PKB In Vitro Enzyme Assay; conditions: pH 7.2; 22 °C
[2] = target: cAMP-dependent protein kinase catalytic subunit alpha (Bos taurus, UniProt P00517); experiment: PKA In Vitro Enzyme Assay; conditions: pH 7.2; 22 °C

Chain of RAC-beta serine/threonine-protein kinase (P31751 whole entry): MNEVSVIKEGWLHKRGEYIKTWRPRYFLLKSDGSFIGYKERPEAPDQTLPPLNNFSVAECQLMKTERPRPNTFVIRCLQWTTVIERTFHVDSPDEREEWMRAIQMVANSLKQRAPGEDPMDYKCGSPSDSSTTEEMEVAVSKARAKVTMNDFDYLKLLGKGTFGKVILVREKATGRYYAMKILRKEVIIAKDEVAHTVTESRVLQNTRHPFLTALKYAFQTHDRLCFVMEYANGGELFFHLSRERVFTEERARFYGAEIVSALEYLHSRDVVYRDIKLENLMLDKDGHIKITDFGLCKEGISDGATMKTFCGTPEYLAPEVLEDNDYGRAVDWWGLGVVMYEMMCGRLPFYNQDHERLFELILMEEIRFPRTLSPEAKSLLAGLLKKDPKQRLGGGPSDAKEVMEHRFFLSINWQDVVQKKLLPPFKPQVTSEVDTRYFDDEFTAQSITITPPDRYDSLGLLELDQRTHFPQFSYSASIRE

Compound: CNCC(c1ccc(Cl)cc1)c1ccc(-c2ncnc3nc[nH]c23)cc1 (configuration not stated) [[2-(4-chlorophenyl)-2-[4-(9H-purin-6-yl)phenyl]ethyl](methyl)amine]
- IC50 [1]: 10 nM
- IC50 [2]: 15 nM

Source: BindingDB's records for doi:10.1021/jm0700924 (Astex Therapeutics, 2007)
